Results as given in ChEMBL document CHEMBL6127088, “Novel 2-aminothiazole analogues both as polymyxin E synergist and antimicrobial agent against multidrug-resistant Gram-positive bacteria” (2024).
≈ marks a conversion by molar mass, not a printed value.

Key:
Type in all cases: functional
Bacillus subtilis = assay: Antimicrobial activity against Bacillus subtilis ATCC 20678 incubated for 18 hrs by broth microdilution method
Acinetobacter baumannii [1] = assay: Synergistic antimicrobial activity against Acinetobacter baumannii ATCC 19606 assessed as fractional inhibitory concentration index in presence of polymyxin E incubated for 18 to 20 hrs by chequerboard assay; conditions: time 18-20 hrs
Staphylococcus aureus = assay: Antimicrobial activity against methicillin/ofloxacin-resistant Staphylococcus aureus ATCC 43300 assessed as minimum inhibitory concentration incubated for 18 hrs by broth microdilution method
Enterococcus faecalis = assay: Antimicrobial activity against vancomycin-resistant Enterococcus faecalis ATCC 51299 assessed as minimum inhibitory concentration incubated for 18 hrs by broth microdilution method
Acinetobacter baumannii [2] = assay: Antimicrobial activity against Acinetobacter baumannii ATCC 19606 incubated for 18 hrs by broth microdilution method

Structure (SMILES)	MIC (Bacillus subtilis)	fractional inhibitory concentration index (FICI) (Acinetobacter baumannii [1])	MIC (Staphylococcus aureus)	MIC (Enterococcus faecalis)	MIC (Acinetobacter baumannii [2])
Fc1ccc(-c2csc(Nc3ccc(C(F)(F)F)cc3F)n2)c(F)c1	256 µg/mL (≈ 684 µM)	1.031	256 µg/mL (≈ 684 µM)	256 µg/mL (≈ 684 µM)	> 256 µg/mL
Fc1ccc(-c2csc(Nc3cc(C(F)(F)F)cc(C(F)(F)F)c3)n2)c(F)c1	4 µg/mL (≈ 9.43 µM)	0.094	4 µg/mL (≈ 9.43 µM)	4 µg/mL (≈ 9.43 µM)	> 256 µg/mL
C/C(=N\Nc1ccc(C(=O)O)cn1)c1csc(Nc2cc(F)cc(C(F)(F)F)c2)n1	64 µg/mL (≈ 146 µM)	1.031	64 µg/mL (≈ 146 µM)	128 µg/mL (≈ 291 µM)	> 256 µg/mL
Cc1cc(C(F)(F)F)ccc1Nc1nc(-c2ccc(F)cc2F)cs1	4 µg/mL (≈ 10.8 µM)	0.094	256 µg/mL (≈ 691 µM)	256 µg/mL (≈ 691 µM)	> 256 µg/mL
Fc1cc(Nc2nc(C3CC3)cs2)cc(C(F)(F)F)c1	16 µg/mL (≈ 52.9 µM)	0.187	32 µg/mL (≈ 106 µM)	8 µg/mL (≈ 26.5 µM)	> 256 µg/mL
Fc1ccc(-c2csc(Nc3ccccn3)n2)c(F)c1	256 µg/mL (≈ 885 µM)	1.031	256 µg/mL (≈ 885 µM)	256 µg/mL (≈ 885 µM)	64 µg/mL (≈ 221 µM)
Fc1cc(Nc2nc(C3CCOCC3)cs2)cc(C(F)(F)F)c1	64 µg/mL (≈ 185 µM)	1.031	64 µg/mL (≈ 185 µM)	128 µg/mL (≈ 370 µM)	> 256 µg/mL
C/C(=N\Nc1cc(O)ncn1)c1csc(Nc2cc(F)cc(C(F)(F)F)c2)n1	256 µg/mL (≈ 621 µM)	0.562	128 µg/mL (≈ 310 µM)	256 µg/mL (≈ 621 µM)	> 256 µg/mL
Fc1ccc(-c2csc(Nc3cc(Cl)cc(C(F)(F)F)c3)n2)c(F)c1	4 µg/mL (≈ 10.2 µM)	0.156	4 µg/mL (≈ 10.2 µM)	2 µg/mL (≈ 5.12 µM)	> 256 µg/mL
Cn1cc(-c2csc(Nc3cc(F)cc(C(F)(F)F)c3)n2)cn1	256 µg/mL (≈ 748 µM)	0.281	256 µg/mL (≈ 748 µM)	256 µg/mL (≈ 748 µM)	> 256 µg/mL
C/C(=N\NC1=NCCN1)c1csc(Nc2cc(F)cc(C(F)(F)F)c2)n1	8 µg/mL (≈ 20.7 µM)	0.75	16 µg/mL (≈ 41.4 µM)	16 µg/mL (≈ 41.4 µM)	> 256 µg/mL
Fc1ccc(-c2csc(Nc3ccncc3)n2)c(F)c1	4 µg/mL (≈ 13.8 µM)	1.031	4 µg/mL (≈ 13.8 µM)	32 µg/mL (≈ 111 µM)	128 µg/mL (≈ 442 µM)
Fc1ccc(-c2csc(Nc3c(Cl)cc(C(F)(F)F)cc3Cl)n2)c(F)c1	256 µg/mL (≈ 602 µM)	1.031	256 µg/mL (≈ 602 µM)	256 µg/mL (≈ 602 µM)	> 256 µg/mL
COc1cc(Nc2nc(-c3ccc(F)cc3F)cs2)cc(C(F)(F)F)c1	2 µg/mL (≈ 5.18 µM)	0.187	256 µg/mL (≈ 663 µM)	256 µg/mL (≈ 663 µM)	> 128 µg/mL
C/C(=N\Nc1cnccn1)c1csc(Nc2cc(F)cc(C(F)(F)F)c2)n1	256 µg/mL (≈ 646 µM)	0.75	64 µg/mL (≈ 161 µM)	128 µg/mL (≈ 323 µM)	128 µg/mL (≈ 323 µM)
Fc1ccc(-c2csc(Nc3ccccc3C(F)(F)F)n2)c(F)c1	8 µg/mL (≈ 22.5 µM)	0.156	8 µg/mL (≈ 22.5 µM)	4 µg/mL (≈ 11.2 µM)	> 256 µg/mL
O=C(Nc1ccccn1)c1csc(Nc2cc(F)cc(C(F)(F)F)c2)n1	256 µg/mL (≈ 670 µM)	0.281	256 µg/mL (≈ 670 µM)	256 µg/mL (≈ 670 µM)	64 µg/mL (≈ 167 µM)
Fc1ccc(-c2csc(Nc3ccc(Cl)c(C(F)(F)F)c3)n2)c(F)c1	1 µg/mL (≈ 2.56 µM)	0.094	1 µg/mL (≈ 2.56 µM)	2 µg/mL (≈ 5.12 µM)	> 256 µg/mL

Structure (SMILES)	MIC (Bacillus subtilis)	fractional inhibitory concentration index (FICI) (Acinetobacter baumannii [1])	MIC (Staphylococcus aureus)	MIC (Enterococcus faecalis)	MIC (Acinetobacter baumannii [2])
Fc1ccc(-c2csc(Nc3cccc(C(F)(F)F)c3)n2)c(F)c1	2 µg/mL (≈ 5.61 µM)	0.094	4 µg/mL (≈ 11.2 µM)	2 µg/mL (≈ 5.61 µM)	> 256 µg/mL
Fc1cc(Nc2nc(-c3ccc(F)cc3F)cs2)cc(C(F)(F)F)c1	2 µg/mL (≈ 5.34 µM)	0.062	2 µg/mL (≈ 5.34 µM)	2 µg/mL (≈ 5.34 µM)	> 256 µg/mL
C/C(=N\Nc1ccc(Cl)nn1)c1csc(Nc2cc(F)cc(C(F)(F)F)c2)n1	256 µg/mL (≈ 594 µM)	0.75	64 µg/mL (≈ 149 µM)	256 µg/mL (≈ 594 µM)	> 256 µg/mL
Cc1ccc(C(F)(F)F)cc1Nc1nc(-c2ccc(F)cc2F)cs1	2 µg/mL (≈ 5.4 µM)	0.093	256 µg/mL (≈ 691 µM)	256 µg/mL (≈ 691 µM)	> 256 µg/mL
COc1cc(Nc2nc(-c3ccc(F)cc3F)cs2)ccc1C(F)(F)F	2 µg/mL (≈ 5.18 µM)	0.187	2 µg/mL (≈ 5.18 µM)	2 µg/mL (≈ 5.18 µM)	> 256 µg/mL
Fc1cc(Nc2nc(-c3ccncc3)cs2)cc(C(F)(F)F)c1	256 µg/mL (≈ 754 µM)	1.031	64 µg/mL (≈ 189 µM)	256 µg/mL (≈ 754 µM)	128 µg/mL (≈ 377 µM)
Fc1cc(Nc2nc(-c3cccs3)cs2)cc(C(F)(F)F)c1	4 µg/mL (≈ 11.6 µM)	0.187	64 µg/mL (≈ 186 µM)	8 µg/mL (≈ 23.2 µM)	> 256 µg/mL
CC(C)(C)c1csc(Nc2cc(F)cc(C(F)(F)F)c2)n1	4 µg/mL (≈ 12.6 µM)	0.156	8 µg/mL (≈ 25.1 µM)	8 µg/mL (≈ 25.1 µM)	> 256 µg/mL
Oc1ccc(Nc2nc(-c3ccc(F)cc3F)cs2)cc1C(F)(F)F	2 µg/mL (≈ 5.37 µM)	0.187	4 µg/mL (≈ 10.7 µM)	2 µg/mL (≈ 5.37 µM)	> 256 µg/mL
Fc1cc(Nc2nc(-c3cc4ccccc4o3)cs2)cc(C(F)(F)F)c1	2 µg/mL (≈ 5.29 µM)	0.187	1 µg/mL (≈ 2.64 µM)	2 µg/mL (≈ 5.29 µM)	> 256 µg/mL
C/C(=N\NC(=N)N)c1csc(Nc2cc(F)cc(C(F)(F)F)c2)n1	4 µg/mL (≈ 11.1 µM)	0.75	8 µg/mL (≈ 22.2 µM)	8 µg/mL (≈ 22.2 µM)	> 256 µg/mL
Oc1cc(Nc2nc(-c3ccc(F)cc3F)cs2)cc(C(F)(F)F)c1	0.5 µg/mL (≈ 1.34 µM)	0.25	1 µg/mL (≈ 2.69 µM)	256 µg/mL (≈ 688 µM)	> 256 µg/mL
Fc1cc(Nc2nc(-c3ccccn3)cs2)cc(C(F)(F)F)c1	0.5 µg/mL (≈ 1.47 µM)	0.078	1 µg/mL (≈ 2.95 µM)	64 µg/mL (≈ 189 µM)	64 µg/mL (≈ 189 µM)
Fc1ccc(-c2csc(Nc3cccnc3)n2)c(F)c1	256 µg/mL (≈ 885 µM)	1.031	128 µg/mL (≈ 442 µM)	256 µg/mL (≈ 885 µM)	128 µg/mL (≈ 442 µM)
Fc1ccc(-c2csc(Nc3ccc(C(F)(F)F)cc3Cl)n2)c(F)c1	256 µg/mL (≈ 655 µM)	1.031	256 µg/mL (≈ 655 µM)	256 µg/mL (≈ 655 µM)	> 256 µg/mL
C/C(=N\Nc1ccccc1)c1csc(Nc2cc(F)cc(C(F)(F)F)c2)n1	16 µg/mL (≈ 40.6 µM)	0.375	16 µg/mL (≈ 40.6 µM)	16 µg/mL (≈ 40.6 µM)	64 µg/mL (≈ 162 µM)
CS(=O)(=O)c1ccc(Nc2nc(-c3ccc(F)cc3F)cs2)cc1	256 µg/mL (≈ 699 µM)	1.031	256 µg/mL (≈ 699 µM)	256 µg/mL (≈ 699 µM)	> 256 µg/mL
